Data: the supplement of paper PMC4862054

Each molecule was assayed on BT-474 (assay: normalised response (% of control), CellTiter-Glo; higher = more viable cells (100 = DMSO, 0 = benzethonium chloride kill control)). Conditions: incubation time: 72 h.
Outline: (§1)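 Each value is the plate-normalised signal at one concentration of the series. Breast cancer cell lines (20 µl suspension) were incubated 72 h in 384-well plates with compound at 5 concentrations in 10-fold steps over a compound-specific 10,000-fold range. CellTox Green and then CellTiter-Glo were read, and each plate was scaled to 0.1 % DMSO (100) and a positive kill control (0).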
In the case of CC(=O)Nc1cccc(-n2c(=O)n(C3CC3)c(=O)c3c(Nc4ccc(I)cc4F)n(C)c(=O)c(C)c32)c1 [Trametinib] (250 nM), the normalised response is reported as 60.1%.
CC[C@H](C)C(=O)O[C@H]1C[C@H](O)C=C2C=C[C@H](C)[C@H](CC[C@@H](O)C[C@@H](O)CC(=O)O)[C@H]21 [Pravastatin] (10000 nM) was tested, and the normalised response was 50.8%.

The molecules below were run on BT-549 in the same assay as above. Conditions: incubation time: 72 h.
Outline: as §1
For O=C(/C=C/c1cccnc1)NCCCCC1CCN(C(=O)c2ccccc2)CC1 [Daporinad] (1000 nM), the normalised response was 103%.
For COc1cc2nccc(Oc3ccc(NC(=O)Nc4cc(C)on4)c(Cl)c3)c2cc1OC [Tivozanib] (10000 nM), the normalised response was 64.2%.
For CC(=O)Nc1cccc(-n2c(=O)n(C3CC3)c(=O)c3c(Nc4ccc(I)cc4F)n(C)c(=O)c(C)c32)c1 [Trametinib] (250 nM), the normalised response was 89%.
In the case of CC[C@H](C)C(=O)O[C@H]1C[C@H](O)C=C2C=C[C@H](C)[C@H](CC[C@@H](O)C[C@@H](O)CC(=O)O)[C@H]21 [Pravastatin] (10000 nM), the normalised response is reported as 56.4%.

These molecules were tested on CAL-120 in the same assay as above. Conditions: incubation time: 72 h.
Outline: as §1
O=C(/C=C/c1cccnc1)NCCCCC1CCN(C(=O)c2ccccc2)CC1 [Daporinad] (1000 nM) showed a normalised response of 14%.
With COc1cc2nccc(Oc3ccc(NC(=O)Nc4cc(C)on4)c(Cl)c3)c2cc1OC [Tivozanib] (10000 nM) the normalised response was 50.6%.
CC(=O)Nc1cccc(-n2c(=O)n(C3CC3)c(=O)c3c(Nc4ccc(I)cc4F)n(C)c(=O)c(C)c32)c1 [Trametinib] (250 nM) showed a normalised response of 62.2%.
CC[C@H](C)C(=O)O[C@H]1C[C@H](O)C=C2C=C[C@H](C)[C@H](CC[C@@H](O)C[C@@H](O)CC(=O)O)[C@H]21 [Pravastatin] (10000 nM) was tested, and the normalised response was 58%.

Each molecule was assayed on CAL-148 in the same assay as above. Conditions: incubation time: 72 h.
Outline: as §1
O=C(/C=C/c1cccnc1)NCCCCC1CCN(C(=O)c2ccccc2)CC1 [Daporinad] (1000 nM) gave a normalised response of 51.5%.
In the case of COc1cc2nccc(Oc3ccc(NC(=O)Nc4cc(C)on4)c(Cl)c3)c2cc1OC [Tivozanib] (10000 nM), the normalised response is reported as 77.6%.
With CC(=O)Nc1cccc(-n2c(=O)n(C3CC3)c(=O)c3c(Nc4ccc(I)cc4F)n(C)c(=O)c(C)c32)c1 [Trametinib] (250 nM) the normalised response was 84.3%.
In the case of CC[C@H](C)C(=O)O[C@H]1C[C@H](O)C=C2C=C[C@H](C)[C@H](CC[C@@H](O)C[C@@H](O)CC(=O)O)[C@H]21 [Pravastatin] (10000 nM), the normalised response is reported as 39.7%.

Each molecule was assayed on CAL-51 in the same assay as above. Conditions: incubation time: 72 h.
Outline: as §1
O=C(/C=C/c1cccnc1)NCCCCC1CCN(C(=O)c2ccccc2)CC1 [Daporinad] (1000 nM) was tested, and the normalised response was 138%.
COc1cc2nccc(Oc3ccc(NC(=O)Nc4cc(C)on4)c(Cl)c3)c2cc1OC [Tivozanib] (10000 nM) showed a normalised response of 70.7%.
With CC(=O)Nc1cccc(-n2c(=O)n(C3CC3)c(=O)c3c(Nc4ccc(I)cc4F)n(C)c(=O)c(C)c32)c1 [Trametinib] (250 nM) the normalised response was 69%.
With CC[C@H](C)C(=O)O[C@H]1C[C@H](O)C=C2C=C[C@H](C)[C@H](CC[C@@H](O)C[C@@H](O)CC(=O)O)[C@H]21 [Pravastatin] (10000 nM) the normalised response was 36%.

What follows are molecules tested on CAL-85-1 in the same assay as above. Conditions: incubation time: 72 h.
Outline: as §1
O=C(/C=C/c1cccnc1)NCCCCC1CCN(C(=O)c2ccccc2)CC1 [Daporinad] (1000 nM) was tested, and the normalised response was 14.3%.
COc1cc2nccc(Oc3ccc(NC(=O)Nc4cc(C)on4)c(Cl)c3)c2cc1OC [Tivozanib] (10000 nM) showed a normalised response of 76.6%.
In the case of CC(=O)Nc1cccc(-n2c(=O)n(C3CC3)c(=O)c3c(Nc4ccc(I)cc4F)n(C)c(=O)c(C)c32)c1 [Trametinib] (250 nM), the normalised response is reported as 46.2%.
CC[C@H](C)C(=O)O[C@H]1C[C@H](O)C=C2C=C[C@H](C)[C@H](CC[C@@H](O)C[C@@H](O)CC(=O)O)[C@H]21 [Pravastatin] (10000 nM) was tested, and the normalised response was 44.8%.

The molecules below were run on DU-4475 in the same assay as above. Conditions: incubation time: 72 h.
Outline: as §1
O=C(/C=C/c1cccnc1)NCCCCC1CCN(C(=O)c2ccccc2)CC1 [Daporinad] (1000 nM) gave a normalised response of 4.62%.
Molecule COc1cc2nccc(Oc3ccc(NC(=O)Nc4cc(C)on4)c(Cl)c3)c2cc1OC [Tivozanib] (10000 nM) has a normalised response of 91.9%.
CC(=O)Nc1cccc(-n2c(=O)n(C3CC3)c(=O)c3c(Nc4ccc(I)cc4F)n(C)c(=O)c(C)c32)c1 [Trametinib] (250 nM) showed a normalised response of 0.48%.
CC[C@H](C)C(=O)O[C@H]1C[C@H](O)C=C2C=C[C@H](C)[C@H](CC[C@@H](O)C[C@@H](O)CC(=O)O)[C@H]21 [Pravastatin] (10000 nM) showed a normalised response of 41.6%.

These molecules were tested on HCC1143 in the same assay as above. Conditions: incubation time: 72 h.
Outline: as §1
For O=C(/C=C/c1cccnc1)NCCCCC1CCN(C(=O)c2ccccc2)CC1 [Daporinad] (1000 nM), the normalised response was 13.2%.
Molecule COc1cc2nccc(Oc3ccc(NC(=O)Nc4cc(C)on4)c(Cl)c3)c2cc1OC [Tivozanib] (10000 nM) has a normalised response of 86.2%.
In the case of CC(=O)Nc1cccc(-n2c(=O)n(C3CC3)c(=O)c3c(Nc4ccc(I)cc4F)n(C)c(=O)c(C)c32)c1 [Trametinib] (250 nM), the normalised response is reported as 81.2%.
CC[C@H](C)C(=O)O[C@H]1C[C@H](O)C=C2C=C[C@H](C)[C@H](CC[C@@H](O)C[C@@H](O)CC(=O)O)[C@H]21 [Pravastatin] (10000 nM) gave a normalised response of 42.3%.

The molecules below were run on HCC1599 in the same assay as above. Conditions: incubation time: 72 h.
Outline: as §1
O=C(/C=C/c1cccnc1)NCCCCC1CCN(C(=O)c2ccccc2)CC1 [Daporinad] (1000 nM) showed a normalised response of 0.76%.
For COc1cc2nccc(Oc3ccc(NC(=O)Nc4cc(C)on4)c(Cl)c3)c2cc1OC [Tivozanib] (10000 nM), the normalised response was 77.2%.
Work on CC(=O)Nc1cccc(-n2c(=O)n(C3CC3)c(=O)c3c(Nc4ccc(I)cc4F)n(C)c(=O)c(C)c32)c1 [Trametinib] (250 nM) yielded a normalised response of 88.3%.
With CC[C@H](C)C(=O)O[C@H]1C[C@H](O)C=C2C=C[C@H](C)[C@H](CC[C@@H](O)C[C@@H](O)CC(=O)O)[C@H]21 [Pravastatin] (10000 nM) the normalised response was 29.5%.

Each molecule was assayed on HCC1937 in the same assay as above. Conditions: incubation time: 72 h.
Outline: as §1
O=C(/C=C/c1cccnc1)NCCCCC1CCN(C(=O)c2ccccc2)CC1 [Daporinad] (1000 nM) showed a normalised response of 17.5%.
Work on COc1cc2nccc(Oc3ccc(NC(=O)Nc4cc(C)on4)c(Cl)c3)c2cc1OC [Tivozanib] (10000 nM) yielded a normalised response of 61.6%.
CC(=O)Nc1cccc(-n2c(=O)n(C3CC3)c(=O)c3c(Nc4ccc(I)cc4F)n(C)c(=O)c(C)c32)c1 [Trametinib] (250 nM) showed a normalised response of 66.5%.
